Measurements as given in patent US20140294970A1, “STABILIZED PHARMACEUTICAL SUB-MICRON SUSPENSIONS AND METHODS OF FORMING SAME” (Alcon Research, Ltd., priority 2008, published 2014).

Tested on: FGFR
Assay: Kinase inhibition, cell-free enzymatic assay
Type: biochemical
Conditions: 1 mM ATP
Experimental: All data reported as IC50 values for kinase inhibition in cell-free enzymatic assays. Values determined @ 1 mM ATP.

IC50: > 12.5 µM
SMILES: Cc1ccc(F)c(NC(=O)Nc2ccc(-c3cccc4[nH]nc(N)c34)cc2)c1 [RTK Inhibitor, N-[4-(3-amino-1H-indazol-4-yl)phenyl]-N′-(2-fluoro-5-methylphenyl) urea]
